Reference: patent US10889596B2, “Beta-amino pateamine a derivatives and methods for treating chronic lymphocytic leukemia” (The Texas A&M University System, priority 2016, dated 2021)
Several values for one entry are separate records, joined by “and”; a condition that tells them apart may be missing. Equal values may be shown once. Read-outs that look alike come from different tables or passages of the source.

How the values were obtained:
[1] = test system: primary CLL cells; assay: Toxicity/apoptosis in primary CLL cells, annexin V/PI double staining and flow cytometry; type: cell-based, human; details: for influence of human plasma content on potency: RPMI with 10% fetal bovine serum, 10% or 50% patient plasma
Procedure: (§1) The mechanism of action of DMDAPatA was studied in multiple primary CLL samples (FIG. 3A). […] CLL cells were incubated with DMDAPatA for 4 and 24 h then pulse labeled with [^3H]leucine for 1 h. The amount of [^3H]leucine incorporation into the acid insoluble materials (DNA, RNA and proteins) was measured by scintillation counter. […] This is consistent in 3 samples as quantitated in FIG. 3C. The Bcl-2 level was not affected by DMDAPatA, which is consistent with its longer half-life (FIG. 3C). […] MOMP facilitates the release of cytochrome c from mitochondria to form the apoptosome, which activated caspase-3 and induced apoptosis. As PARP is a substrate of caspase-3, an increase of cleaved PARP in FIG. 3C indicated activation of caspase 3. Apoptosis was measured by annexin V and propodium iodide (PI) double staining followed by flow cytometry.
(§2) To screen for PatA analogs with greater potency and less plasma protein binding, the toxicity of the analogs to primary CLL cells was measured after 24 of incubation by annexin/PI double staining followed by flow cytometry. This was compared between CLL cells cultured in media supplemented with either 10% FBS or patient plasma to evaluate the plasma influence. Plasma protein binding was assessed using the equilibrium dialysis method (FIG. 7B).

[2] = test system: protein synthesis in CLL cells; assay: [3H]leucine incorporation analysis of protein synthesis in CLL cells; type: cell-based, human; details: CLL cells incubated 4 and 24 h, pulse labeled 1 h
Procedure: as §1
(§3) To confirm that the analogs retain the inhibition on protein synthesis, leucine incorporation analysis was performed on the analogs (FIG. 9A) and compared to DMDAPatA and PatA.

[3] = test system: Mcl-1; assay: Immunoblot of Mcl-1 level in CLL cells; type: cell-based, human; details: CLL samples
Procedure: as §1, §3

[4] = test system: Bcl-2; assay: Immunoblot of Bcl-2 level in CLL cells; type: cell-based, human; details: CLL samples
Procedure: as §1

[5] = Stability of DMDAPatA in RPMI, FBS and human plasma; type: in vitro ADME; details: read-out: Half-life time (converted)
Procedure: These experiments were performed in CLL cells cultured in media supplemented with 10% patient plasma. While mimicking the in vivo environment, we also found this condition beneficial in maintaining cell survival. One potential reason for the reduced potency in the presence of human plasma is stability. To test this theory, the stability of DMDAPatA was studied in FBS and human plasma at two different concentrations.

[6] = Plasma protein binding, equilibrium dialysis; type: in vitro ADME, human
Procedure: as §2
In this example, the plasma protein binding assay used to provide the plasma protein binding data is described.
The assay includes the following steps.
1. Frozen plasma was thawed and centrifuged at 1120 g for 10 min to remove any particulates. The plasma was decanted, the pH was measured and, if required, was adjusted to pH7.4 with lactic acid.
2. All compounds were prepared at 10 mM concentration in DMSO. The solutions were carefully vortexed to ensure the compounds dissolved. The 10 mM DMSO solutions were diluted to 500 μM MeOH solutions (5+95 μl).
3. In a 2 mL 96-well plate (DWP), 1000 μL of plasma was pipetted into each well in Columns 1-4.
4. 10 μL of the 500 μM compound solution was pipetted to 1000 μL of corresponding plasma. (The final DMSO=0.05%). The solution was capped and carefully vortexed for 5 min.
5. 200 μL of PBS buffer was added to each receiver well of the dialysis plate (buffer was added to the Receiver first).
6. The bottom of dialysis plate was capped and turned over to the orange donor side (top) of dialysis plate.
7. The orange donor side of the dialysis plate was uncapped and 200 μL of the 10 μM drug/plasma samples were transferred from the 2 ml 96-DWP to the corresponding donor wells in the dialysis plate. The orange donor side of the dialysis plate was then capped.
8. The dialysis plate was placed onto the plate rotator in a 37° C. oven and incubated at 37° C. with a rotation speed 20 rpm for 22 hr.
9. To a 1 mL 96-DWP, 50 μL/well of the 5 μM drug/plasma samples was pipetted from the 2 mL 96-DWP in triplicate. 50 μL/well of PBS and then 300 μL of ACN/IS was added. The plate was kept at 4° C. This plate serves as the recovery plate.
10. Two 1 mL 96-DWP were prepared and marked as Donor Plate and Receiver Plate.
11. The dialysis plate was removed from the 37° C. oven.
12. The caps were removed from the donor side of the dialysis plate.
13. 50 μL of samples were pipetted from the donor side of the dialysis plate and added into the 96-DWP Donor Plate. 50 μL of PBS buffer was added into the 96-DWP Donor Plate.
14. The donor side of the dialysis plate was capped and turned over. Caps were removed from the Receiver side wells. 50 uL of samples were pipetted from the Receiver side of the dialysis plate and added to the 96-DWP Receiver Plate. […]
23. The samples in the Receiver Plate, Donor Plate, and Recovery Plate were analyzed by LC/MS/MS […]

[7] = test system: models of human leukemia and melanoma; details: mice; cited from earlier work
[8] = test system: B cells from normal donors; assay: Cellular toxicity to B cells from normal donors; type: cell-based, human
Excerpt: (§4) To predict the therapeutic window of the PatA analogs, their cellular toxicity was compared to CLL cells and to B and T cells from normal donors (FIGS. 8A and 8B). […] PatA was originally identified as a biological probe that inhibits T cell activation, consistent with its toxicity to T cells.

[9] = test system: T cells from normal donors; assay: Cellular toxicity to T cells from normal donors; type: cell-based, human
Excerpt: as §4

[10] = test system: P388 murine leukemia cells; details: read-out: IC50, cytotoxic activity; cited from earlier work
[11] = primary CLL cells, media with 10% FBS, 24 incubation, read-out: IC50 (μM) 10% FBS
[12] = primary CLL cells, media with 10% patient plasma, 24 incubation, read-out: IC50 (μM) 10% Plasma
[13] = Homo sapiens, CLL cell, primary CLL cells, media with 10% FBS, 24 incubation, read-out: IC50 (μM) 10% FBS
[14] = Homo sapiens, CLL cell, primary CLL cells, media with 10% patient plasma, 24 incubation, read-out: IC50 (μM) 10% Plasma
[15] = RPMI medium without serum, Pure RPMI

Compound: 1,1,1-Trichloro-2-methylpropan-2-yl ((12Z,3S,6Z,8E,11S,15R)-3-((1E,3E,5E)-7-(dimethyl amino)-2-methylhepta-1,3,5-trien-1-yl)-9,11-dimethyl-5,13-dioxo-4,12-dioxa-1(2,4)-thiazolacycloheptadecaphane-6,8-dien-15-yl)carbamate [OR-IV-211]
- IC50 [1, 11]: 3.5 µM
- IC50 [1, 12]: 6.65 µM

Compound: CC(/C=C/C(C)=C/[C@@H]1Cc2nc(cs2)CCCCC(=O)O[C@@H](C)C/C(C)=C/C=C\C(=O)O1)=C\CN(C)C [DMDAPatA, Des-methyl, des-amino Pateamine A]
- potency relative to PatA (times less potent) ([1]; CLL cells, media with 10% patient plasma): about 30 times
- IC50 in samples with favorable versus poor prognostic characteristics ([1]; CLL patient samples by prognostic group): no significant differences
- IC50 ([1]; Homo sapiens, CLL cell, measured in 13 CLL samples, read-out: average IC50): 2.8 µM
- IC50 [1, 13]: 0.65 µM
- IC50 [1, 14]: 6.42 µM
- influence of human plasma content on potency [1]: greatly reduced the potency
- inhibition of protein synthesis ([3H]leucine incorporation) [2]: inhibit protein synthesis
- Mcl-1 level [3]: reduced the short-lived anti-apoptotic protein Mcl-1
- Bcl-2 level [4]: not affected
- half-life at 1 µM ([5]; Fetal Bovine Serum): 16 h
- half-life at 10 µM ([5]; Fetal Bovine Serum): 11.5 h
- half-life at 1 µM ([5]; Human Plasma): 18 h
- half-life at 10 µM ([5]; Human Plasma): 14 h
- half-life at 1 µM [5, 15]: 3 h
- half-life at 10 µM [5, 15]: 3.2 h
- recovery in plasma [6]: low recovery
- plasma protein bound ([6]; human plasma): 99.7% and > 99%
- activity in xenograft models [7]: significant tumor reduction

Compound: CC(=O)NC1CCc2csc(n2)CC(C=C(C)C=CC(C)=CCN(C)C)OC(=O)C=CC=C(C)CC(C)OC(=O)C1 [MZ732, N-((12Z,3S,6Z,8E,11S,15R)-3-((1E,3E,5E)-7-(dimethylamino)-2,5-dimethylhepta-1,3,5-trien-1-yl)-9,11-dimethyl-5,13-dioxo-4,12-dioxa-1(2,4)-thiazolacycloheptadecaphane-6,8-dien-15-yl)acetamide]
- IC50 [1, 11]: 4.58 µM
- IC50 [1, 12]: 6.8 µM

Compound: CC(/C=C/C(C)=C/[C@@H]1Cc2nc(cs2)CC[C@@H](N)CC(=O)O[C@@H](C)C/C(C)=C/C=C\C(=O)O1)=C\CN(C)C [OR-IV-234, (12Z,3S,6Z,8E,11S,15R)-15-amino-3-((1E,3E,5E)-7-(dimethylamino)-2,5-dimethylhepta-1,3,5-trien-1-yl)-9,11-dimethyl-4,12-dioxa-1(2,4)-thiazolacycloheptadecaphane-6,8-diene-5,13-dione]
- IC50 [1, 11]: 0.33 µM
- IC50 [1, 12]: 0.35 µM
- plasma protein binding (PPB) compared with PatA and DMDAPatA [6]: much lower plasma protein binding
- recovery in plasma [6]: modest recovery

Compound: CC(/C=C/C(C)=C/[C@@H]1Cc2nc(cs2)[C@@H](C)C[C@@H](N)CC(=O)O[C@@H](C)C/C(C)=C/C=C\C(=O)O1)=C\CN(C)C [PatA, Pateamine A]
- IC50 [1, 13]: 0.2 µM
- IC50 [1, 14]: 0.2 µM
- influence of human plasma content on potency [1]: not as influential
- toxicity to normal B cells compared with CLL cells [8]: similarly toxic to CLL cells as well as normal B and T cells
- toxicity to normal T cells compared with CLL cells [9]: similarly toxic to CLL cells as well as normal B and T cells
- IC50 [10]: 0.00027 µM
